The target in data set [1] is T1, GST-hLGK1 (human liver type GK) (Homo sapiens, UniProt P35557).
T1 construct: made in house; host or cells: Escherichia coli BL21
T1 sequence (P35557 1-464 isoform P35557-3): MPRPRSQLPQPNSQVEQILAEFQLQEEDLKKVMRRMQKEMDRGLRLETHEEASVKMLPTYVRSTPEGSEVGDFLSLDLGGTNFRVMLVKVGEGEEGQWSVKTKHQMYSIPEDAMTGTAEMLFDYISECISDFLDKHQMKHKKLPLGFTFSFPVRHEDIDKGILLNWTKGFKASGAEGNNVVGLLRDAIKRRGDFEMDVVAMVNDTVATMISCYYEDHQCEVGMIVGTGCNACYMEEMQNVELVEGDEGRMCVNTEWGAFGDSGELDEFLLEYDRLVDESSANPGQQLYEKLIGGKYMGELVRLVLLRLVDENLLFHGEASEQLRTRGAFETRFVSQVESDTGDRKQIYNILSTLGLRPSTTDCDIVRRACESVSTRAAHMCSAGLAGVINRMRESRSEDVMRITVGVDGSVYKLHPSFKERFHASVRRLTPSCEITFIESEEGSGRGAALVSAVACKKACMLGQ
Put plainly: Determination of GK activity value (Mant-ATP/Mant-ADP capillary electrophoresis). It counts as biochemical. The settings on record: GK activation; GST-hLGK1, D-glucose, 37° C. for 60 min. The protocol: A solution (5 μL) of test compound in 50% dimethyl sulfoxide was added to each well of 384 well black plate (Nalge Nunc International K.K.). Then, a solution (35 μL) obtained by diluting GST-hLGK1 obtained in Reference Example 2A with measurement buffer (containing 50 mM HEPES (pH 7.4), 200 mM KCl, 5 mM MgCl2, 2.5 mM DTT and 50 μM 2′-(or -3′)—O—(N-methylanthraniloyl) adenosine 5′-triphosphate (Mant-ATP) (Jena Bioscience GmbH)) to 6 μg/mL was added to each well.
Each well was stood at 37° C. for 10 min, and 25 mM D-glucose solution (10 μL) was added to start the reaction.
Each well after the reaction was stood at 37° C. for 60 min, and the reaction was quenched by adding 25 μL of a quenching solution (containing 200 mM HEPES (pH 7.4), 20 mM MgCl2, 200 mM EDTA, 0.03% Triton-X 100, 0.3% Coating 3 reagent (Caliper Life Sciences, Inc.)).
2′-(or -3′)-O—(N-methylanthraniloyl)adenosine 5′-triphosphate (Mant-ATP, substrate) and Mant-ADP (reaction resultant product) were separated from each well after the reaction by a microchip type capillary electrophoresis apparatus 250 HTS (Caliper Life Sciences, Inc.). The reaction rate [(reaction resultant product peak height)/(reaction resultant product peak height+substrate peak height)×100(%)] was calculated from the ratio of the substrate peak height and reaction resultant product peak height obtained by fluorescence detection (excitation wavelength 355 nm, measurement wavelength 460 nm) and used as the index of GK activity.
As a control group, the reaction rate was calculated in the same manner as above except that “solution in 50% dimethyl sulfoxide (free of a test compound)” was used instead of “solution of test compound in 50% dimethyl sulfoxide”.
Using the percentage obtained by subtracting the reaction rate of the control group from the reaction rate of the well added with the test compound (test compound addition group) as a GK activation value of the test compound, a concentration dependency curve of the test compound was drawn, and the concentration of the test compound at the middle point between the maximum activity value of the test compound addition group and the activity value of the control group was taken as an EC50 value.

Structures are written as SMILES.

What is called melting point is the temperature, or range, at which the solid turns liquid. On to `COC(OC)C1CN=C(c2cc3sc(C)c(N(C)S(=O)(=O)c4cccs4)c3[nH]2)S1` (centres unmarked) [Example 12, N-{5-[5-(dimethoxymethyl)-4,5-dihydro-1,3-thiazol-2-yl]-2-methyl-4H-thieno[3,2-b]pyrrol-3-yl}-N-methylthiophene-2-sulfonamide], for which the melting point was determined as 185 °C.
Compound `CON(C)C(=O)c1cc2sc(C)c(N(C)S(=O)(=O)c3cccs3)c2[nH]1` [Example 13, N-methoxy-N,2-dimethyl-3-[methyl(2-thienylsulfonyl)amino]-4H-thieno[3,2-b]pyrrole-5-carboxamide] yielded a melting point of 187 °C.
Take `CCOC(=O)c1cc2c([nH]1)c(N(C)S(=O)(=O)c1cccs1)cn2CC` [Example 15, ethyl 4-ethyl-6-[methyl(2-thienylsulfonyl)amino]-1,4-dihydropyrrolo[3,2-b]pyrrole-2-carboxylate]: the melting point is 122 °C.
What is called EC50 is the concentration needed to bring the measured effect to its halfway point. Low readings indicate higher potency in that assay, high ones lower potency in that assay. `CCn1cc(N(C)S(=O)(=O)c2cccs2)c2[nH]c(C3=NCCS3)cc21` [Example 17, N-[5-(4,5-dihydro-1,3-thiazol-2-yl)-1-ethyl-1,4-dihydropyrrolo[3,2-b]pyrrol-3-yl]-N-methylthiophene-2-sulfonamide] came in with a melting point of 163 °C. In data set [1], this compound displayed an EC50 of 350 nM.
On to `Cc1sc2cc(C3=NCC4(CCNCC4)S3)[nH]c2c1N(C)S(=O)(=O)c1cccs1` [Example 7, N-methyl-N-[2-methyl-5-(1-thia-3,8-diazaspiro[4.5]deca-2-en-2-yl)-4H-thieno[3,2-b]pyrrol-3-yl]thiophene-2-sulfonamide], for which the melting point stood at 196 °C.
Still for that read-out and setting: in the case of `CC(=O)c1cc2sc(C)c(N(C)S(=O)(=O)c3cccs3)c2[nH]1` [Example 14, N-(5-acetyl-2-methyl-4H-thieno[3,2-b]pyrrol-3-yl)-N-methylthiophene-2-sulfonamide] it was 220 °C.
Turning to `CCOC(=O)c1cc2sc(C)c(N(C)C(=O)OCc3ccccc3)c2[nH]1` [Example 2, ethyl 3-{[(benzyloxy)carbonyl](methyl)amino}-2-methyl-4H-thieno[3,2-b]pyrrole-5-carboxylate], the melting point is 122 °C.
`Cc1sc2cc(C3=NCCS3)[nH]c2c1N(C)S(=O)(=O)c1cccs1` [Example 5, N-[5-(4,5-dihydro-1,3-thiazol-2-yl)-2-methyl-4H-thieno[3,2-b]pyrrol-3-yl]-N-methylthiophene-2-sulfonamide] came in with a melting point of 140 °C. In data set [1], this compound displayed an EC50 of 74 nM.
The compound `CCOC(=O)c1nnc(-c2cc3sc(C)c(N(C)S(=O)(=O)c4cccs4)c3[nH]2)s1` [Example 10, ethyl 5-{2-methyl-3-[methyl(2-thienylsulfonyl)amino]-4H-thieno[3,2-b]pyrrol-5-yl}-1,3,4-thiadiazole-2-carboxylate] returned a melting point of 209 °C.
For the compound `CCOC(=O)c1cc2nc(C)n(Cc3ccccc3)c2[nH]1` [Example 1, ethyl 3-benzyl-2-methyl-3,4-dihydropyrrolo[2,3-d]imidazole-5-carboxylate], the melting point amounted to 193 °C. The compound also displayed an EC50 in data set [1] of 3600 nM.
The compound `Cc1sc2cc(C(=O)NCC3(SCc4ccccc4)CCNCC3)[nH]c2c1N(C)S(=O)(=O)c1cccs1` [Example 6, N-{[4-(benzylthio)piperidin-4-yl]methyl}-2-methyl-3-[methyl(2-thienylsulfonyl)amino]-4H-thieno[3,2-b]pyrrole-5-carboxamide] yielded a melting point of 222 °C.
The compound `CC(=O)N1CCC2(CC1)CN=C(c1cc3sc(C)c(N(C)S(=O)(=O)c4cccs4)c3[nH]1)S2` [Example 8, N-[5-(8-acetyl-1-thia-3,8-diazaspiro[4.5]deca-2-en-2-yl)-2-methyl-4H-thieno[3,2-b]pyrrol-3-yl]-N-methylthiophene-2-sulfonamide] showed a melting point of 231 °C. In data set [1], this compound returned a concentration for a half-maximal effect (EC50) of 160 nM.
In the case of `CCOC(=O)c1cc2c([nH]1)c(N(C)S(=O)(=O)c1cccs1)cn2Cc1ccccc1` [Example 18, ethyl 4-benzyl-6-[methyl(2-thienylsulfonyl)amino]-1,4-dihydropyrrolo[3,2-b]pyrrole-2-carboxylate], the melting point came out at 120 °C. In data set [1], the response was half-maximal at 430 nM (EC50).
`CCOC(=O)c1cc2sc(C)c(N(C)S(=O)(=O)c3cccs3)c2[nH]1` [Example 3, ethyl 2-methyl-3-[methyl(2-thienylsulfonyl)amino]-4H-thieno[3,2-b]pyrrole-5-carboxylate] yielded a melting point of 161 °C.
For the compound `CCOC(=O)C(=O)NNC(=O)c1cc2sc(C)c(N(C)S(=O)(=O)c3cccs3)c2[nH]1` [Example 9, ethyl [2-({2-methyl-3-[methyl(2-thienylsulfonyl)amino]-4H-thieno[3,2-b]pyrrol-5-yl}carbonyl)hydrazino](oxo)acetate], the melting point was determined as 135 °C.

The values above are taken from patent publication US8492405B2, “Glucokinase-activating fused heterocyclic compounds and methods of treating diabetes and obesity” (Takeda Pharmaceutical Company Limited, priority 2006, dated 2013).
